Measurements reported in patent US8129371B2, “Thienopyrimidine and pyrazolopyrimidine compounds and their use as mTOR kinase and PI3 kinase inhibitors” (Wyeth LLC, priority 2007, dated 2012).
Where two headings read alike, the source gives them in different places.

Legend:
[1] = molecular target: T1, Human mTOR (FLAG-TOR) (Homo sapiens, UniProt P42345); test: Human mTOR kinase assay with purified enzyme, DELFIA format; assay type: biochemical
T1 construct: FLAG
Outline: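 Purified FLAG-mTOR in HEPES pH 7.4 buffer with 10 mM MnCl2 was preincubated with inhibitor and reacted 2 h at room temperature with His6-S6K substrate, then stopped with EDTA/EGTA. Phospho-T389 S6K detected by DELFIA with Eu-labelled antibody (40 ng/mL) after plate capture; inhibition computed from signal.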

[2] = molecular target: T2, PI3K (Homo sapiens, UniProt O00329); test: Fluorescence polarization assay for PI3K; assay type: biochemical
T2 construct: PI3 Kinase δ IC50; other: PI3 Kinase δ; other: PI3 Kinase δ isoform, fluorescence polarization
T2 sequence (O00329 1-1044): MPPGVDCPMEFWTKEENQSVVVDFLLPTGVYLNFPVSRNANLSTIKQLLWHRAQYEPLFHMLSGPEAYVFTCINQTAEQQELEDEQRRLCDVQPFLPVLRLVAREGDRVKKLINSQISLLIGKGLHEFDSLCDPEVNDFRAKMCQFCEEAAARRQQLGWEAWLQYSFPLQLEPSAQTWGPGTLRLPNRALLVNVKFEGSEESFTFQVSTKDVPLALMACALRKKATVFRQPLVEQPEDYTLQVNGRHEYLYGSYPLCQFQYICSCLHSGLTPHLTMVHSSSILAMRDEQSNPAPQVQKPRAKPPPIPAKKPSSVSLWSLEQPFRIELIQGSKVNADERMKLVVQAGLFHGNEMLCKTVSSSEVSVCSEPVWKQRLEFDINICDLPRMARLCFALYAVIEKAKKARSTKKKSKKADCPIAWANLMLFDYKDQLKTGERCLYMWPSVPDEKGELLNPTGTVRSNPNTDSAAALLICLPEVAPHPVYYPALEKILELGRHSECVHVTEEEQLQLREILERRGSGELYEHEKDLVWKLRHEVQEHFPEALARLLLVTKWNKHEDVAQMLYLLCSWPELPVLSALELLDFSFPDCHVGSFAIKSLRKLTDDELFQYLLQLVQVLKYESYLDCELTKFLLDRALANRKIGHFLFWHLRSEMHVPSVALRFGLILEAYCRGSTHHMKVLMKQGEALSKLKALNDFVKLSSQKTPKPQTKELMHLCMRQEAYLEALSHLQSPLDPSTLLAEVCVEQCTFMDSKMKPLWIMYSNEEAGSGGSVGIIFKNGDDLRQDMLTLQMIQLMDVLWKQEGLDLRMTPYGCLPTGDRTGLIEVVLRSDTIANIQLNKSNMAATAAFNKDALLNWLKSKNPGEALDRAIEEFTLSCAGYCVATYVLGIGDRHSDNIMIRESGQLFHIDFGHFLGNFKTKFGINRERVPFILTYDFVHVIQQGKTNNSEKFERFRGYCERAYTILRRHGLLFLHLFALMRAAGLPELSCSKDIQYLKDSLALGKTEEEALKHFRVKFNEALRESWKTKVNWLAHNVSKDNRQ
Outline: (§1)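 PI3K was preincubated with compound (final DMSO 1%), and the reaction was started with PIP2/ATP substrate and run 30–60 min. It was stopped with a detector mix giving 10 nM red probe and 70 nM GST-GRP.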

[3] = molecular target: T3, PI3K (Homo sapiens, UniProt P42336); test: Fluorescence polarization assay for PI3K; assay type: biochemical; details: read-out: PI3 Kinase α IC50
T3 construct: PI3 Kinase α IC50; other: PI3 Kinase α; other: PI3 Kinase α isoform, fluorescence polarization
Outline: as §1

[4] = molecular target: T4, PI3K (Homo sapiens, UniProt P42338); test: Fluorescence polarization assay for PI3K; assay type: biochemical
T4 construct: PI3 Kinase β IC50; other: PI3 Kinase β; other: PI3 Kinase β isoform, fluorescence polarization
Outline: as §1

[5] = molecular target: T5, PI3K (Homo sapiens, UniProt P48736); test: Fluorescence polarization assay for PI3K; assay type: biochemical; details: read-out: PI3 Kinase γ IC50
T5 construct: PI3 Kinase γ IC50; other: PI3 Kinase γ; other: PI3 Kinase γ isoform, fluorescence polarization
Outline: as §1

[6] = tested on: breast line MDA468; test: In vitro cell culture growth assay (MTS), MDA468; assay type: cell-based; details: Homo sapiens, 72 h, MDA468 cells, three days after drug treatment
Outline: (§2)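 Inhibitors were added one day after plating, and viable cells were measured 3 days later by MTS conversion (absorbance 490 nm).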

[7] = tested on: prostate line LNCap; test: In vitro cell culture growth assay (MTS), LNCap; assay type: cell-based; details: Homo sapiens, LNCaP, 72 h, LNCap cells, three days after drug treatment
Outline: as §2

[8] = tested on: acute lymphoblastic leukemia xenograft; details: NOS/SCID xenograft mouse model; Teachey et al, Blood 2006; cited from earlier work
[9] = purified human mTOR enzyme, DELFIA format
[10] = PI3 Kinase δ isoform, fluorescence polarization
[11] = PI3 Kinase α isoform, fluorescence polarization
[12] = PI3 Kinase β isoform, fluorescence polarization
[13] = PI3 Kinase γ isoform, fluorescence polarization

T3 sequence (P42336 whole entry, canonical isoform): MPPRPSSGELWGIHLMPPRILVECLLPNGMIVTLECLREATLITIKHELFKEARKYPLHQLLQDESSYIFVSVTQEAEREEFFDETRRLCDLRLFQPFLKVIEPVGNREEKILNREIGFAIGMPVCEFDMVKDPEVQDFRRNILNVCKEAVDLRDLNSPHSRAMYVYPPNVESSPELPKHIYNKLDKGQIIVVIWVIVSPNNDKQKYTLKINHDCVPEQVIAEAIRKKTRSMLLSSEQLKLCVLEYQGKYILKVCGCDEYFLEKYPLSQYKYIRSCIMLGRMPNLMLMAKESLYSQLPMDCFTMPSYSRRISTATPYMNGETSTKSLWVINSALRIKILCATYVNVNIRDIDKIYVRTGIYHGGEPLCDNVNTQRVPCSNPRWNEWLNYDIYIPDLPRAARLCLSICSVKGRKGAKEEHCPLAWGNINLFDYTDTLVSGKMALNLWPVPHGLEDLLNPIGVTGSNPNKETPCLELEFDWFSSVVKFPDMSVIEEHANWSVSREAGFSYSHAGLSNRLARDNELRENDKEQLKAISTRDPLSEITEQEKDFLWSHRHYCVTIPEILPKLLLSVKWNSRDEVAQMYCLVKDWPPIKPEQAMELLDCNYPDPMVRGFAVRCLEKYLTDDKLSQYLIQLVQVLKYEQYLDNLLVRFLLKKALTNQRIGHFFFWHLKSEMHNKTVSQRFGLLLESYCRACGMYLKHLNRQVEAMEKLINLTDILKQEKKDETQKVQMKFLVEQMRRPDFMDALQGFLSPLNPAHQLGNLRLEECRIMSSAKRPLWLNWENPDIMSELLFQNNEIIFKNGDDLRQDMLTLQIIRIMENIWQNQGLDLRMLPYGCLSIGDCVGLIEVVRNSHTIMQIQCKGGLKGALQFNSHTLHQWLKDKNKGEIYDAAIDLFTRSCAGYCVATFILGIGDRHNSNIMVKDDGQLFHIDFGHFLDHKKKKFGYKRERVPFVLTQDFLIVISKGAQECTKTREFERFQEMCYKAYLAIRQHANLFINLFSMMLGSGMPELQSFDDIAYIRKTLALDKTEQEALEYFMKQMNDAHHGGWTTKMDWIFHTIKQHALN
T4 sequence (P42338 whole entry, canonical isoform): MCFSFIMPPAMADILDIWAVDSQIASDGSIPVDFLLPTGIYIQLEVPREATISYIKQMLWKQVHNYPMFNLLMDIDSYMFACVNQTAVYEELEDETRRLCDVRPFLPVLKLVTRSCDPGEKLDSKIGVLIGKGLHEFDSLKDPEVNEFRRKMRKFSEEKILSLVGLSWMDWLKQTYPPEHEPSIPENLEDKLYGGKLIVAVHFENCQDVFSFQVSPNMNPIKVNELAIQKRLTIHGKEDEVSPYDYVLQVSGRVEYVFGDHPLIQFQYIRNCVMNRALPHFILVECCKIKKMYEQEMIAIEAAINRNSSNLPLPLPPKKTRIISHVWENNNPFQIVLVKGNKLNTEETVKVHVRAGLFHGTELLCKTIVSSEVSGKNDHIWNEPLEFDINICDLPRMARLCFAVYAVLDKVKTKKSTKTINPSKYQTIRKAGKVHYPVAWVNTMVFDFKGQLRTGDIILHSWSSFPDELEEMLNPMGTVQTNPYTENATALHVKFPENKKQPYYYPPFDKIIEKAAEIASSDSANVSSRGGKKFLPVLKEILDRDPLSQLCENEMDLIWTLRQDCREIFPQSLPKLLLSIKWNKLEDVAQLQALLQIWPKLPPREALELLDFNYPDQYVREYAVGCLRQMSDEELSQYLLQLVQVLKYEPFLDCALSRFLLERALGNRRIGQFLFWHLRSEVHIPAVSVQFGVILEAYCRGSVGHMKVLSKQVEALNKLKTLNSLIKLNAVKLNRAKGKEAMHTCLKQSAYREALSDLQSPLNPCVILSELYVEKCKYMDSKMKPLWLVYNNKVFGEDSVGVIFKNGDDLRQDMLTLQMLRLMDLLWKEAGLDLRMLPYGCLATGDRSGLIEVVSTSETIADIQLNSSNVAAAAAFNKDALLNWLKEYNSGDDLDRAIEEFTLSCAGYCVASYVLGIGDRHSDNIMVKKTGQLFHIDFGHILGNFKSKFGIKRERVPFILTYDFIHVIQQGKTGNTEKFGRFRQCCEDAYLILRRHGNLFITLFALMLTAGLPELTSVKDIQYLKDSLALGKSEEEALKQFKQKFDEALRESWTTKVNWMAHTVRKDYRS
T5 sequence (P48736 whole entry, canonical isoform): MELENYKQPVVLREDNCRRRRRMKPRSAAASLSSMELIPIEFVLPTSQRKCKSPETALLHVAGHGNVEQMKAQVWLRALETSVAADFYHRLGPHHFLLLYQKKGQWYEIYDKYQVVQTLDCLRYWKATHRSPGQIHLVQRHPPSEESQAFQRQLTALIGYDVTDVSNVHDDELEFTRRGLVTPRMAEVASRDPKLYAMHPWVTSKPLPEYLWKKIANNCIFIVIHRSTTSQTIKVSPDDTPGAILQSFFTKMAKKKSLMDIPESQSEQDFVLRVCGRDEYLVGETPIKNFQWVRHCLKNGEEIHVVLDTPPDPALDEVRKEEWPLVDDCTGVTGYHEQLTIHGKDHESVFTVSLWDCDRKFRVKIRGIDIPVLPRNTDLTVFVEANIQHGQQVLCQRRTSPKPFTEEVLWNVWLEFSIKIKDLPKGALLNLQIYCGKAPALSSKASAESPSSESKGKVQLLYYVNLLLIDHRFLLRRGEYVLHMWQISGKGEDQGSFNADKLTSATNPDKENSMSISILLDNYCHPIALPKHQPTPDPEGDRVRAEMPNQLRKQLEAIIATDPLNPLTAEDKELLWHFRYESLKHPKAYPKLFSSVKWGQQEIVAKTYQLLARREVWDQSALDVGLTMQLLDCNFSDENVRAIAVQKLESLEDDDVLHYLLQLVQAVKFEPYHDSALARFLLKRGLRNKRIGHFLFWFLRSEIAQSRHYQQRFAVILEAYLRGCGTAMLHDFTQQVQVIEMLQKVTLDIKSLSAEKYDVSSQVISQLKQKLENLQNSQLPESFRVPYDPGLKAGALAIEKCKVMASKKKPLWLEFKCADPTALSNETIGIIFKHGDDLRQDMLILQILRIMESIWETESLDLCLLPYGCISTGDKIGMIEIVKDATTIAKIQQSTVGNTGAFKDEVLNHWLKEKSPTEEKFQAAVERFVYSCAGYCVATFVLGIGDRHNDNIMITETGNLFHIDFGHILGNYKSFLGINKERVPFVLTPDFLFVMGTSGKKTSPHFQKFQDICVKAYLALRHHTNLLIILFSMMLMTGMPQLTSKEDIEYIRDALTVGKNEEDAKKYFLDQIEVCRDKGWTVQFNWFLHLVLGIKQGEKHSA

IC50 [1]	IC50 ([2]; PI3 Kinase δ)	IC50 ([3]; PI3 Kinase α)	IC50 ([4]; PI3 Kinase β)	IC50 ([5]; PI3 Kinase γ)	IC50 [7]	IC50 [1, 9]	IC50 [2, 10]	IC50 [3, 11]	IC50 [4, 12]	IC50 [5, 13]	Compound	IC50 [6]	activity in xenograft mouse model of acute lymphoblastic leukemia [8]
0.21 nM	2380 nM	1180 nM	> 10000 nM	> 10000 nM							CNC(=O)Nc1ccc(-c2nc(N3CC4CCC(C3)O4)c3cnn(C4CCC5(CC4)OCCO5)c3n2)cc1 [Example 105, 1-(4-(4-(8-oxa-3-azabicyclo[3.2.1]octan-3-yl)-1-(1,4-dioxaspiro[4.5]decan-8-yl)-1H-pyrazolo[3,4-d]pyrimidin-6-yl)phenyl)-3-methylurea]	26 nM	
0.6 nM	12000 nM	1050 nM	> 10000 nM	12000 nM	2.3 nM						O=C(Nc1ccc(-c2nc(N3CC4CCC(C3)O4)c3cnn(CC(F)(F)F)c3n2)cc1)OCCO [Example 110, 2-hydroxyethyl {4-[4-(8-oxa-3-azabicyclo[3.2.1]oct-3-yl)-1-(2,2,2-trifluoroethyl)-1H-pyrazolo[3,4-d]pyrimidin-6-yl]phenyl}carbamate]	42 nM	
0.776 nM	945 nM	142 nM			1 nM						CN1CCN(c2ccc(NC(=O)Nc3ccc(-c4nc(N5CC6CCC(C5)O6)c5cnn(CC(F)(F)F)c5n4)cc3)cc2)CC1 [Example 261, 1-[4-(4-methylpiperazin-1-yl)phenyl]-3-{4-[4-(8-oxa-3-azabicyclo[3.2.1]oct-3-yl)-1-(2,2,2-trifluoroethyl)-1H-pyrazolo[3,4-d]pyrimidin-6-yl]phenyl}urea]	2 nM	
					67 nM	1.87 nM	6820 nM	4050 nM	> 10000 nM	1070 nM	O=C(Nc1ccc(-c2nc(N3C[C@@H]4C[C@H]3CO4)c3cnn(CC(F)(F)F)c3n2)cc1)NC1CC1 [Example 296, 1-cyclopropyl-3-(4-{4-[(1S,4S)-2-oxa-5-azabicyclo[2.2.1]hept-5-yl]-1-(2,2,2-trifluoroethyl)-1H-pyrazolo[3,4-d]pyrimidin-6-yl}phenyl)urea]	138 nM	
					2 nM	0.3 nM	1740 nM	3920 nM	> 10000 nM	8020 nM	COC1CCC(n2ncc3c(N4CC5CCC(C4)O5)nc(-c4ccc(NC(=O)NC5CC5)cc4)nc32)CC1 (stereo not shown) [Example 302, 1-cyclopropyl-3-{4-[1-(4-methoxycyclohexyl)-4-(8-oxa-3-azabicyclo[3.2.1]oct-3-yl)-1H-pyrazolo[3,4-d]pyrimidin-6-yl]phenyl}urea]	7 nM	
					< 1 nM	0.265 nM	200 nM	239 nM	2840 nM	720 nM	COC1CCC(n2ncc3c(N4CC5CCC(C4)O5)nc(-c4ccc(NC(=O)Nc5ccc(N6CCN(C)CC6)cc5)cc4)nc32)CC1 (stereo not shown) [Example 304, 1-{4-[1-(4-methoxycyclohexyl)-4-(8-oxa-3-azabicyclo[3.2.1]oct-3-yl)-1H-pyrazolo[3,4-d]pyrimidin-6-yl]phenyl}-3-[4-(4-methylpiperazin-1-yl)phenyl]urea]	1 nM	
											CO[C@H]1C[C@@H]2CC[C@@H](C)[C@@](O)(O2)C(=O)C(=O)N2CCCC[C@H]2C(=O)O[C@H]([C@H](C)C[C@@H]2CC[C@@H](OC(=O)C(C)(CO)CO)[C@H](OC)C2)CC(=O)[C@H](C)/C=C(\C)[C@@H](O)[C@@H](OC)C(=O)[C@H](C)C[C@H](C)/C=C/C=C/C=C/1C [Torisel]		active
